Laboratory results reported in patent US20090018201A1, “Method of Combating Bugs” (BASF Aktiengesellschaft, priority 2005, published 2009).

Columns and labels:
Assay in all cases: Field test, activity against bugs on treated host plants
Assay type in all cases: in vivo
[1] = test system: Lygus hesperus (Western plant bug); conditions: crop Alfalfa; rate 100 ppm (the 1st table r8); field plots, spray
Method: […] Treatments were diluted in water and applied at 400 to 600 liters/hectare to experimental plots using standard application equipment (such as a backpack sprayer). Each treatment was replicated 3 times and comprised an area of approximately 30 square meters. Pre-treatment evaluations of the number of live insects per plant were made one day prior to first treatment. Post-treatment evaluations were made at 5 to 7 day intervals. Field studies were conducted under ambient conditions during normal growing season.

[2] = test system: Cletus trigonus (Slender rice bug); conditions: crop Rice; rate 50 ppm (the 1st table r14); field plots, spray
Method: (§1) Host plants (such as rice, wheat, and cabbage) were treated with 50, 150 or 300 ppm of a compound of formula I. Treatments were diluted in water and applied at 400 to 600 liters/hectare to experimental plots using standard application equipment (such as a backpack sprayer). Each treatment was replicated 3 times and comprised an area of approximately 30 square meters. Pre-treatment evaluations of the number of live insects per plant were made one day prior to first treatment. Post-treatment evaluations were made at 5 to 7 day intervals. Field studies were conducted under ambient conditions during normal growing season.

[3] = test system: Eurydema ornatum (Cabbage bug); conditions: crop Cabbage; rate 50 ppm (the 1st table r13); field plots, spray
Method: as §1

[4] = test system: Nezara antennata (Common green stink bug); conditions: crop Rice; rate 300 ppm (the 1st table r6); field plots, spray
Method: as §1

[5] = test system: Euschistus spp (Stink bug spp.); conditions: crop Rice; rate 300 ppm (the 1st table r12); field plots, spray
Method: as §1

Paromius exiguus = conditions: crop Rice; rate 300 ppm (the 1st table r5); field plots, spray
Method: as §1

[6] = test system: Halticus bracteatus (Garden fleahopper); conditions: crop Alfalfa; rate 300 ppm (the 1st table r11); field plots, spray
Method: as §1

[7] = test system: Stenotus rubrovittatus (Sorghum plant bug); conditions: crop Rice; rate 50 ppm (the 1st table r4); field plots, spray
Method: as §1

[8] = test system: Lagynotomus elongatus (Brown rice stink bug); conditions: crop Rice; rate 150 ppm (the 1st table r10); field plots, spray
Method: as §1

[9] = test system: Trigonotylus coelestialum (Rice leaf bug); conditions: crop Rice; rate 50 ppm (the 1st table r3); field plots, spray
Method: as §1

[10] = test system: Leptocorisa corbetti (Leaf-footed bug); conditions: crop Rice; rate 50 ppm (the 1st table r9); field plots, spray
Method: as §1

Measured: control

CCNC(=NNc1c(Cl)cc(C(F)(F)F)cc1Cl)C1(C)CC1(Cl)Cl (stereo not drawn) [N-ethyl-2,2-dichloro-1-methylcyclopropane-carboxamide, 2-(2,6-dichloro-α,α,α-trifluoro-p-tolyl)hydrazone]
over 75%: all assays above
